From ChEMBL document CHEMBL1201862, “PubChem BioAssay data set” (2004)
Calls of active or inactive are those of the source.

Experiments:
[1] = biological target: T1, Neuropeptides B/W receptor type 1 (Homo sapiens, UniProt P48145); assay: Fluorescence-based dose response cell-based high throughput screening assay to identify antagonists of the G-protein coupled receptor 7 (GPR7). [Related pubchem assays: 1952 (Screening assay (GPR7 antagonists).), 1880 (Summary AID.)]; assay type: functional
T1 sequence (P48145 whole entry): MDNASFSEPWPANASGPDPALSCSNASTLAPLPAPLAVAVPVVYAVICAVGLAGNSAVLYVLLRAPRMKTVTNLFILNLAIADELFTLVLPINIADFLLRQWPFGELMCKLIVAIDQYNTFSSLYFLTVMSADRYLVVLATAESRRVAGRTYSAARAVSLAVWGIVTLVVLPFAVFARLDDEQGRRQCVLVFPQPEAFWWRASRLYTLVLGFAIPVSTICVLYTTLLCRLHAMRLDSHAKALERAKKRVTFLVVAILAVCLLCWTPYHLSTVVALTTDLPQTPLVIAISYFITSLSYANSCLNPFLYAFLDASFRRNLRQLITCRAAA

[2] = biological target: Melanin-concentrating hormone receptor 1 (Homo sapiens, UniProt Q99705); assay: Fluorescence-based counterscreen for antagonists of the G-protein coupled receptor 7 (GPR7): cell-based high throughput dose response assay to identify antagonists of the melanin-concentrating hormone receptor 1 (MCHR1).; assay type: functional
[3] = Trypanosoma cruzi growth suppression in host cells – NIH3T3 host cells, beta-gal luminescence, confirmation (AID 2044); assay type: functional, cell-based;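 also: intracellular parasites grown in NIH/3T3 mouse fibroblasts as host cells; luminescent beta-galactosidase reporter signal from transgenic T. cruzi replicating inside host cells; inhibitors lower the luminescence signal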
[4] = NIH3T3 cell viability loss – ATP luminescence, mouse fibroblasts, counter-screen, dose response (AID 2010); assay type: functional, cell-based;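 also: cells exposed to compound for about 90 hours before reading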
[5] = biological target: T2, Estrogen receptor (Homo sapiens, UniProt P03372);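 also: potency for inhibiting coactivator peptide recruitment to the receptor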
T2 sequence (P03372 whole entry): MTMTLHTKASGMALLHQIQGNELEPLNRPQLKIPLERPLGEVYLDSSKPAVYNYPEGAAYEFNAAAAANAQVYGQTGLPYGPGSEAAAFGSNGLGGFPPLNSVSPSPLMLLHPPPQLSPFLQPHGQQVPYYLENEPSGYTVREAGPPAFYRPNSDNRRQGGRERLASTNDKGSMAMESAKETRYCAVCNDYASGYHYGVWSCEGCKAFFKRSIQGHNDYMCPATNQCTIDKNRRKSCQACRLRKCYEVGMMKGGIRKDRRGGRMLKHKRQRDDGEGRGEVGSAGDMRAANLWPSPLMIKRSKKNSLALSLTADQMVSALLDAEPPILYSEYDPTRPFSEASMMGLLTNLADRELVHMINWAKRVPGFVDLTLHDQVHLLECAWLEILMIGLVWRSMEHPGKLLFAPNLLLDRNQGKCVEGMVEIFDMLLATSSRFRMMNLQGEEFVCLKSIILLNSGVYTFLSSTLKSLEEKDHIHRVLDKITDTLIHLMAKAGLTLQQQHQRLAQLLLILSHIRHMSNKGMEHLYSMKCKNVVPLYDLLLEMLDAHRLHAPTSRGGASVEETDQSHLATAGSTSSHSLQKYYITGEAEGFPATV

[6] = biological target: T3, Corticotropin-releasing factor receptor 2/Corticotropin-releasing factor-binding protein (Homo sapiens, UniProt P24387+Q13324); assay: activators of CRF receptor 2 with binding protein – uHTS hits, confirmation (AID 602473); assay type: functional; conditions: read-out: EC50_Mean
T3 sequence (Q13324 whole entry): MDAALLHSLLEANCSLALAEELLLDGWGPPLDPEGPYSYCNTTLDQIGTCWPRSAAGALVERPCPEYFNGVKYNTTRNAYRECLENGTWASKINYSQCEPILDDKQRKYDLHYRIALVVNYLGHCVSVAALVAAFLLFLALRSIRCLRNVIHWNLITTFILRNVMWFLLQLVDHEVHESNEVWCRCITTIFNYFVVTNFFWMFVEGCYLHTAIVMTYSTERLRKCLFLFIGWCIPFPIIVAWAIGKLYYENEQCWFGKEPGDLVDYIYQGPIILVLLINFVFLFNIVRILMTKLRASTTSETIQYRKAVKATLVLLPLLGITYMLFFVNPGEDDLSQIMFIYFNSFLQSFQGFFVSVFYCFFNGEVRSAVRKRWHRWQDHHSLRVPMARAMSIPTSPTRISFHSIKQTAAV
T3 sequence (P24387 whole entry): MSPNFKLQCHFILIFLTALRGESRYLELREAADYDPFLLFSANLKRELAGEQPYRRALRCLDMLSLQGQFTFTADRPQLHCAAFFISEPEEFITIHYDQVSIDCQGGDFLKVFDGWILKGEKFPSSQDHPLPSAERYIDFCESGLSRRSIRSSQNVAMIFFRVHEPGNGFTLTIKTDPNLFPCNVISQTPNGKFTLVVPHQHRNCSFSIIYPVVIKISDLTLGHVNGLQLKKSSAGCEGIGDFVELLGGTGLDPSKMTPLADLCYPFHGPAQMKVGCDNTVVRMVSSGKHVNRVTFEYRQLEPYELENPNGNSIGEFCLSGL

[7] = A cytotoxicity screen of small molecule inhibitors of the PhoP region in Salmonella typhi identified in the primary screen. [Related pubchem assays: 1850, 1864, 1985 ]; assay type: functional
[8] = biological target: Peroxisome proliferator-activated receptor gamma/Nuclear receptor coactivator 3 (Homo sapiens, UniProt P37231); assay: TR-FRET dose response biochemical High Throughput Screening assay for agonists of the steroid receptor coactivator 3 (SRC-3) recruitment by the peroxisome proliferator-activated receptor gamma (PPAR gamma): non-selective agonists. [Related pubchem assays: 1301 (Confirmation screen.), 1048 (Primary screen.)]; assay type: functional
[9] = biological target: Peroxisome proliferator-activated receptor gamma/Nuclear receptor coactivator 2 (Homo sapiens, UniProt P37231); assay: (§1) TR-FRET dose response biochemical High Throughput Screening assay for agonists of the steroid receptor coactivator 2 (SRC-2) recruitment by the peroxisome proliferator-activated receptor gamma (PPAR gamma): non-selective agonists. [Related pubchem assays: 1297, 1032 ]; assay type: functional
[10] = biological target: Peroxisome proliferator-activated receptor gamma/Nuclear receptor coactivator 1 (Homo sapiens, UniProt P37231); assay: as §1, with “1 (SRC-1)” for “2 (SRC-2)”, “assays (depositor defined):AID1300, AID1808, AID504735, AID631]” for “assays: 1297, 1032 ]”; assay type: protein assay
[11] = HEK-293T cell viability reduction – luminescence, B-cell screen hits, cytotoxicity control for BCR NF-kB inhibitor project, dose response (AID 489021); assay type: functional, cell-based;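 also: HEK-293T cells carrying an NF-kB luciferase reporter; cells exposed to compound for about 14 hours before viability readout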
[12] = biological target: T4, Aminopeptidase N (Plasmodium falciparum FcB1/Columbia, UniProt O96935); assay: malaria alanyl aminopeptidase activity blockers – biochemical, fluorogenic H-Leu-NHMec substrate, 1536-well (AID 1445); design: species or system Plasmodium falciparum 3D7, 3D7
T4 sequence (O96935 whole entry): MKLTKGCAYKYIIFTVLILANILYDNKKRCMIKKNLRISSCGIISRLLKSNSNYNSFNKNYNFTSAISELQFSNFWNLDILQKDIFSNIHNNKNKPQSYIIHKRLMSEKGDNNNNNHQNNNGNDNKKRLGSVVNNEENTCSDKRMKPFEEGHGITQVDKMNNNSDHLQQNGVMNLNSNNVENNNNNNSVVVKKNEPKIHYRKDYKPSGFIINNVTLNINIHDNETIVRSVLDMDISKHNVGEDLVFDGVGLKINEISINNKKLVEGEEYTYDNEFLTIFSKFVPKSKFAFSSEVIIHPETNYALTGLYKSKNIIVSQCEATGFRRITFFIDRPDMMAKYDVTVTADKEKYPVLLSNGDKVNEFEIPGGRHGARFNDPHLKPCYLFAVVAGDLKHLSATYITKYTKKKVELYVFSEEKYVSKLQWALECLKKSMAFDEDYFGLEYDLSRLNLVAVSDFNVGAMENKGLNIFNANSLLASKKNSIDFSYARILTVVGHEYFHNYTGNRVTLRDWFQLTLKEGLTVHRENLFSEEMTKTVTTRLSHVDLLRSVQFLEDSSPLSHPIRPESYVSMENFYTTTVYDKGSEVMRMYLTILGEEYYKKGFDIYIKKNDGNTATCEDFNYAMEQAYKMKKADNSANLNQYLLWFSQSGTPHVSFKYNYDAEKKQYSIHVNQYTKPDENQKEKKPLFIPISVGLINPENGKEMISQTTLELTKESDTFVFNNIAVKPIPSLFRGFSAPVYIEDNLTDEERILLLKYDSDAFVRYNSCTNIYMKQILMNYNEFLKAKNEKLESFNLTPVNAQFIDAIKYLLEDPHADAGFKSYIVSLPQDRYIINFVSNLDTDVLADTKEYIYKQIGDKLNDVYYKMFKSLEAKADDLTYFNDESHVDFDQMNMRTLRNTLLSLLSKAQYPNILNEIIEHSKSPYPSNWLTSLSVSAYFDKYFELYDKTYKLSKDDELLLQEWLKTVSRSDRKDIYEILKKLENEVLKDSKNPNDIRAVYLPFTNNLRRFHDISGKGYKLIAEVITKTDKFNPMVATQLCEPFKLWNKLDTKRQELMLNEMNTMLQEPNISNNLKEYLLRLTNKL

[13] = biological target: Estrogen receptor beta (Homo sapiens, UniProt Q92731);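 also: recombinant ER-beta bound to coactivator SRC1 peptide in presence of estradiol agonist; inhibitors block coactivator peptide binding and lower the FRET signal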
[14] = biological target: Cytochrome P450 2D6 (Homo sapiens, UniProt P10635); assay: qHTS Assay for Inhibitors and Substrates of Cytochrome P450 2D6. [Related pubchem assays: 410 ]; assay type: ADME; conditions: read-out: Potency
[15] = biological target: Cytochrome P450 3A4 (Homo sapiens, UniProt P08684); conditions: Potency;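 also: confirmatory qHTS run detecting inhibitors and substrates of CYP3A4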
[16] = viability of uninfected HEp-2 cells – cell-based, HTS, cytotoxicity control for RSV inhibitor project, dose response (AID 2410); assay type: functional; conditions: human respiratory syncytial virus
[17] = biological target: T5, Heat shock factor protein 1 (Mus musculus, UniProt P38532); assay: enhancement of HSF1-driven luciferase signal – cell-based, NIH3T3, luminescence, dose retest, confirmation (AID 435004); assay type: functional;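 also: stress induced by proteasome inhibitor MG132 added 30 min after compound; luciferase reporter driven by HSF1 response element in NIH3T3 cells; actives raise luminescence as potentiators of the MG132 stress response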
T5 sequence (P38532 whole entry): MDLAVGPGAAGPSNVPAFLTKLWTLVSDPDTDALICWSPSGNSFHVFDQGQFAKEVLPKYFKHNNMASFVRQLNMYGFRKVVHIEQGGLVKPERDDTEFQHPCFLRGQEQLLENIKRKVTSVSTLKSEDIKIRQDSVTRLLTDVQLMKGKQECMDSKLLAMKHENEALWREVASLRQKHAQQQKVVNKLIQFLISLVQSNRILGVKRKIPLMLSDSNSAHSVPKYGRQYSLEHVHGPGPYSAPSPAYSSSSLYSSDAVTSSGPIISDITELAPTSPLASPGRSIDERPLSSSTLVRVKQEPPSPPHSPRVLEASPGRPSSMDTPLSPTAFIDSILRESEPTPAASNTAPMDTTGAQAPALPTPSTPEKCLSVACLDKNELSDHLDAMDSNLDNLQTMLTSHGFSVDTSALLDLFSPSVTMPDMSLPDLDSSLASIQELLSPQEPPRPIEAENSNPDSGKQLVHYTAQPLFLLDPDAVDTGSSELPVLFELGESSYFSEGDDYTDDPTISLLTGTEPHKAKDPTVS

[18] = biological target: Nonstructural protein 1 (Influenza A virus, UniProt Q194T2); assay type: functional, Influenza A virus (A/California/07/2009(H1N1))
[19] = biological target: T6, Microphthalmia-associated transcription factor (Homo sapiens, UniProt O75030); assay: reducers of TRPM1 reporter luminescence, concentration series – cell-based, SK-MEL-5, cherry-picked, set 3, MITF inhibitor project, dose response (AID 493073); assay type: functional;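 also: SK-MEL-5 melanoma cells with luciferase driven by the MITF target TRPM1 promoter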
T6 sequence (O75030 whole entry): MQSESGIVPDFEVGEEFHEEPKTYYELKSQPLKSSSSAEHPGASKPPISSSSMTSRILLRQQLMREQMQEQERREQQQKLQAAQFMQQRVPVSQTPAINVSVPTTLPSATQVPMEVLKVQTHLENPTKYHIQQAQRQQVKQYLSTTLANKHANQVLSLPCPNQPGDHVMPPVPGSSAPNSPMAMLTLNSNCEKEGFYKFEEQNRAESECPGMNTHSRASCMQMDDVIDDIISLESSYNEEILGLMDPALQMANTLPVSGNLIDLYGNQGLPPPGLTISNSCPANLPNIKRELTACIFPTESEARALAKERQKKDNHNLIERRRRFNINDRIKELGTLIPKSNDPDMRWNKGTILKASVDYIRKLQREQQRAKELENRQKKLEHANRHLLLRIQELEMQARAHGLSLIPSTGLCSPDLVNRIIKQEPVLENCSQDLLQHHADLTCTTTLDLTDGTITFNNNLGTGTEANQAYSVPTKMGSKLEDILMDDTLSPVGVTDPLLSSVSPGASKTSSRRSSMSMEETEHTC

[20] = cells; assay type: functional, cell-based
[21] = cells; assay type: functional, cell-based; remark: listed apart in the source

Sequence of Melanin-concentrating hormone receptor 1 (Q99705 whole entry): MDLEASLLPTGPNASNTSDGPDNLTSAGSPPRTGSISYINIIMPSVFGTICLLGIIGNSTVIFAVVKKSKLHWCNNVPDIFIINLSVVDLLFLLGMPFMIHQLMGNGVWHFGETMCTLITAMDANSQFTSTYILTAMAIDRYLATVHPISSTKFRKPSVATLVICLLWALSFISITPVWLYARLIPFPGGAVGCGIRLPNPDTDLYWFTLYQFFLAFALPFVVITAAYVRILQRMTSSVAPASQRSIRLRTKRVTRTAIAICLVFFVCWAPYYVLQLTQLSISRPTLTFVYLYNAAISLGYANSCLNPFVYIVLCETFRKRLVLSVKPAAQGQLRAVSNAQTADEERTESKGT
Sequence of Cytochrome P450 2D6 (P10635 whole entry): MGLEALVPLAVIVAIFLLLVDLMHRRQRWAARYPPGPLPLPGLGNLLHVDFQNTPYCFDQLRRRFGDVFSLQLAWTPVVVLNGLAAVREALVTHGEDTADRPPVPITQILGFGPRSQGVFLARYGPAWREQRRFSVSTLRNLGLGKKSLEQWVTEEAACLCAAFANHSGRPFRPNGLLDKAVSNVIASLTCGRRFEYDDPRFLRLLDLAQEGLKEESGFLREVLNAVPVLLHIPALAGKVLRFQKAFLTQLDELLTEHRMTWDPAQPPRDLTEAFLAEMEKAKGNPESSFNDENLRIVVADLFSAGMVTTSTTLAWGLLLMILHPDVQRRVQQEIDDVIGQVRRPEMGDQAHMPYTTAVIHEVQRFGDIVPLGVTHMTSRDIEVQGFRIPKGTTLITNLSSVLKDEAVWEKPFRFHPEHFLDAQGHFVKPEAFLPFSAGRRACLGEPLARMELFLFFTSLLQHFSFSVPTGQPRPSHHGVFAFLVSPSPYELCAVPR
Sequence of Peroxisome proliferator-activated receptor gamma/Nuclear receptor coactivator 2 (P37231 whole entry): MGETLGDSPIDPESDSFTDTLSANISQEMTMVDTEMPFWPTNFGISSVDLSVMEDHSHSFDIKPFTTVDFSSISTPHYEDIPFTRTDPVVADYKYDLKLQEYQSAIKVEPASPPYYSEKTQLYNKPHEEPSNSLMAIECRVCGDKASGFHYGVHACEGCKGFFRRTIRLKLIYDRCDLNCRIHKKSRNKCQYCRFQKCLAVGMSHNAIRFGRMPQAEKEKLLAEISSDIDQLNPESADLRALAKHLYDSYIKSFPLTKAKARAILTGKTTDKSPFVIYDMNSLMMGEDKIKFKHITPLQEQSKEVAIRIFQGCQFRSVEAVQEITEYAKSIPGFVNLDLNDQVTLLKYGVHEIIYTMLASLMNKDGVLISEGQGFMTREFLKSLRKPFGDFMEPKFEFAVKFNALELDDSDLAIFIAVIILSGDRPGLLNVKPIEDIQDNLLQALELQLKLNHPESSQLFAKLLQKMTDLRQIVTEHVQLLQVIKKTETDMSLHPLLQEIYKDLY
Sequence of Peroxisome proliferator-activated receptor gamma/Nuclear receptor coactivator 2 (Q15596 whole entry, further chain): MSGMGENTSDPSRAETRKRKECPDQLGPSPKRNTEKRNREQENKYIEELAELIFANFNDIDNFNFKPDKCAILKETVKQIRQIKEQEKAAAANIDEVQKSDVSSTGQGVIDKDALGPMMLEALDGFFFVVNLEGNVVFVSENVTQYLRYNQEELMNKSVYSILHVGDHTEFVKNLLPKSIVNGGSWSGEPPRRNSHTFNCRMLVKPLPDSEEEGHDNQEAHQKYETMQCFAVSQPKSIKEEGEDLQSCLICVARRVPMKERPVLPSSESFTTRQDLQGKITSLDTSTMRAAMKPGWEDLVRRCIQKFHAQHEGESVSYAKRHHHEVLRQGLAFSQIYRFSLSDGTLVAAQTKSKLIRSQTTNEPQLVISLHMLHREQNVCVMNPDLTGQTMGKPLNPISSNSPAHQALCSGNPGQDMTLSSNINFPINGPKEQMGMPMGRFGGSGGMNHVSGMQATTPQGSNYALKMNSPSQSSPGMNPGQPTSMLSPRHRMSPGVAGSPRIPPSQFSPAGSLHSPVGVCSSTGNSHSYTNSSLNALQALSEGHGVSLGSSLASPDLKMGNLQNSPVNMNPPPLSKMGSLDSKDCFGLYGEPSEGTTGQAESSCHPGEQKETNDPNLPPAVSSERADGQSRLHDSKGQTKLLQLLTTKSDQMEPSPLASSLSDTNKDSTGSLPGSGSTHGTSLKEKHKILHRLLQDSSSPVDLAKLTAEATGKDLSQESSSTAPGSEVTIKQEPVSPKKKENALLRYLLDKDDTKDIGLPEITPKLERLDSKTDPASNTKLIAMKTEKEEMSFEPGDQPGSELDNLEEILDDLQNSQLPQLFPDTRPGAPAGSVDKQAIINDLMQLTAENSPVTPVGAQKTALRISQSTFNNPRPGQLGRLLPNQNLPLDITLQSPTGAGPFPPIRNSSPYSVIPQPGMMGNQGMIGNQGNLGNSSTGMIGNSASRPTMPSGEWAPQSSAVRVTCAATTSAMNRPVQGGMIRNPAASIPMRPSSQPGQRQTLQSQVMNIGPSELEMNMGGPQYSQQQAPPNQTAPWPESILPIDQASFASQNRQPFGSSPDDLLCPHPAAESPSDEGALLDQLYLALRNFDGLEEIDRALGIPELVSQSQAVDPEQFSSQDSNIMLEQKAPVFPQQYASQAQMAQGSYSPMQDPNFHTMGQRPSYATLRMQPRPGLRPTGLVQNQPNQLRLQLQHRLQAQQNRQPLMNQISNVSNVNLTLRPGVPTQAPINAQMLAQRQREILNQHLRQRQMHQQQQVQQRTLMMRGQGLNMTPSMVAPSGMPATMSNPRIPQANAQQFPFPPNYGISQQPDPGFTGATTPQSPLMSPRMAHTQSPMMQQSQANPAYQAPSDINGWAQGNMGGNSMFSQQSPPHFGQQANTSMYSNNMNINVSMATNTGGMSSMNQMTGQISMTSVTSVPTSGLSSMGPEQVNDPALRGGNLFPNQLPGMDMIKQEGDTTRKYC
Sequence of Peroxisome proliferator-activated receptor gamma/Nuclear receptor coactivator 1 (P37231 whole entry): as the sequence (P37231 whole entry) above
Sequence of Peroxisome proliferator-activated receptor gamma/Nuclear receptor coactivator 1 (Q15788 whole entry, further chain): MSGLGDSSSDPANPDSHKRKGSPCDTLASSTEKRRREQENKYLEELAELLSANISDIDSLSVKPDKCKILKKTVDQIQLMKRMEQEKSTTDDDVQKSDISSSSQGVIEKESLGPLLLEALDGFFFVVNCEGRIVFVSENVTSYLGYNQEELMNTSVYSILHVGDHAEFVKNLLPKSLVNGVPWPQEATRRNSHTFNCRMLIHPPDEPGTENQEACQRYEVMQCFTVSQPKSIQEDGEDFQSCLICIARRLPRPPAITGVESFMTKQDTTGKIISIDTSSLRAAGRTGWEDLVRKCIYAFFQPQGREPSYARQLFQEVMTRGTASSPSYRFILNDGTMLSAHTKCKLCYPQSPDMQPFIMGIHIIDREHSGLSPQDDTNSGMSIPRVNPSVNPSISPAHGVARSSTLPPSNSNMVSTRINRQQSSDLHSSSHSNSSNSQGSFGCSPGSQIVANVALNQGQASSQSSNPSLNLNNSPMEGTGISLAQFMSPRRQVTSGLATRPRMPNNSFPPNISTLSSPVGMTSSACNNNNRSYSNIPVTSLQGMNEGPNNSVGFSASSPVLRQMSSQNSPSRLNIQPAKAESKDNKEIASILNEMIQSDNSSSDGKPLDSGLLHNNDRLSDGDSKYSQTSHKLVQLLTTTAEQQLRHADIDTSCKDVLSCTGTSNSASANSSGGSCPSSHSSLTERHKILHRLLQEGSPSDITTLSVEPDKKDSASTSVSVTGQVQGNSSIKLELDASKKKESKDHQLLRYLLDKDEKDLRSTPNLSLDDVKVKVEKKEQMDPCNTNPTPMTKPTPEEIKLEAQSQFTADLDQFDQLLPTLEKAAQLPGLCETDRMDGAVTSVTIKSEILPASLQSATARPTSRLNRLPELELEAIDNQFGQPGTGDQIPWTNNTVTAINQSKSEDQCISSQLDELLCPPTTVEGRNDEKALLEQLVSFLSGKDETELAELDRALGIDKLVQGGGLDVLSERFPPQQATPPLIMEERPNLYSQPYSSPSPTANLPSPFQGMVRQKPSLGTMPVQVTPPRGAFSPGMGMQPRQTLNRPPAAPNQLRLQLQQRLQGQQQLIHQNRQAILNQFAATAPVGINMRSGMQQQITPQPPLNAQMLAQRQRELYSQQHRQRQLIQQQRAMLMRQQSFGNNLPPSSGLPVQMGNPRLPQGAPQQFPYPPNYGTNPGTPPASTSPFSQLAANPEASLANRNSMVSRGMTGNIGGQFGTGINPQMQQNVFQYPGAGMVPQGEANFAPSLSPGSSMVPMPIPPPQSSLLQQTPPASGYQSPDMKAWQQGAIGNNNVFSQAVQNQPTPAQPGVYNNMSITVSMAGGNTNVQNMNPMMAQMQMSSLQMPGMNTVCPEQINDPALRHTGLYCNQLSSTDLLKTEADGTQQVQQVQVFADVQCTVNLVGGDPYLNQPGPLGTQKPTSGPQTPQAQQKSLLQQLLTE
Sequence of Nonstructural protein 1 (Q194T2 whole entry): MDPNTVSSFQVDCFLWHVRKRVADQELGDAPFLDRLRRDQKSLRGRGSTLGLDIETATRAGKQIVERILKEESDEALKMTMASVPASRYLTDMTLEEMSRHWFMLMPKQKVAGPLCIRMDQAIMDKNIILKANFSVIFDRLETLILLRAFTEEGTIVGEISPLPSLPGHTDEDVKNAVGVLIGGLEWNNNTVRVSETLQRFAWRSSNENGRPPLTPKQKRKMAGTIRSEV

O=[N+]([O-])c1nn(-c2ccc3c(c2)OCCO3)[n+]([O-])c1Nc1ccc(Cl)cc1
IC50 [1]: > 43.8 µM (not active) | IC50 [2]: > 43.8 µM (not active) | EC50 [3]: 0.131 µM (active) | EC50 [4]: > 60 µM (not active)

CCOC(=O)c1cc2ccccc2n1CCN(CC)CC
IC50 [5]: > 50 µM (not active) | EC50 [6]: 6.45 µM (active)

COc1ccccc1/C=C/C(=O)Nc1cccc(C(C)=O)c1
EC50 [7]: > 50 µM (active)

CCn1c(=O)cc(SCC(=O)N2CCCCC2)c2ccccc21
EC50 [8]: > 79.4 µM (not active) | EC50 [9]: > 79.4 µM (not active) | EC50 [10]: > 79.4 µM (inactive) | IC50 [11]: > 80 µM (inactive)

Cc1ccccc1CSc1nc(O)c2c[nH]nc2n1
IC50 [12]: 65.2 µM (active)

O=C(O)COc1ccc(Br)cc1CP(=O)(c1ccccc1)c1ccccc1
IC50 [12]: 49.3 µM (active)

Cc1ccc(OCC(O)Cn2c(N)nc3c2c(=O)n(C)c(=O)n3C)cc1 (stereo not given)
EC50 [7]: > 50 µM (active)

O=C(Nc1ccc(Cc2ccncc2)cc1)C1CCC(N2C(=O)C3CC=CCC3C2=O)CC1 (stereo not given)
IC50 [5]: > 50 µM (not active) | IC50 [13]: > 50 µM (not active)

Nc1ncncc1-c1ccc(Cl)cc1
EC50 [7]: > 50 µM (active)

Cc1ccc(N=C(S)NCc2ccc(Cl)cc2)c(C)c1
IC50 [1]: > 43.8 µM (not active) | IC50 [2]: 17.1 µM (not active)

CCCCc1nc2c(c3c1CC(C)OC3)CN(CCOc1ccccc1)CC2 (stereo not given)
AC50 [14]: 3.16 µM (inconclusive) | AC50 [15]: 3.16 µM (inconclusive)

CC1=CC(C)(C)Nc2ccc(OC(=O)C(Cc3ccccc3)N3C(=O)c4ccccc4C3=O)cc21 (stereo not given)
CC50 [16]: > 50 µM (active) | EC50 [17]: > 260 µM (inactive) | IC50 [11]: > 80 µM (inactive)

O=C(N/N=C/c1cc(Cl)ccc1O)c1ccncc1
IC50 [18]: 5.05 µM (active) | AC50 [19]: 8.98 µM (active) | IC50 [12]: 22.3 µM (active) | EC50 [20]: 18.1 µM (active) | EC50 [21]: > 350 µM (not active)

CC1=NCCc2c1[nH]c1cc(O)ccc21 [HARMALOL]
AC50 [14]: 31.6 µM (inconclusive)
